# Key:
# [1] = molecular target: NATA1Δ (Arabidopsis thaliana, UniProt Q9ZV05); assay: isothermal titration calorimetry; assay type: binding
# [2] = molecular target: NATA2Δ (Arabidopsis thaliana, UniProt Q9ZV06); assay: isothermal titration calorimetry; assay type: binding
# Sequence of NATA2Δ (Q9ZV06 30-236, stated change not applied): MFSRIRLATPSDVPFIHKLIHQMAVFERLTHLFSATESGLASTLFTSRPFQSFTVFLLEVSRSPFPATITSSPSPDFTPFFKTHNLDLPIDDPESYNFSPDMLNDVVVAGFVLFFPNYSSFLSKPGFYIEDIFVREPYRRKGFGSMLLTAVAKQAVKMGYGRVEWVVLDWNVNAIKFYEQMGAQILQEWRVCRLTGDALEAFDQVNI
# Sequence of NATA1Δ (Q9ZV05 19-228, stated change not applied): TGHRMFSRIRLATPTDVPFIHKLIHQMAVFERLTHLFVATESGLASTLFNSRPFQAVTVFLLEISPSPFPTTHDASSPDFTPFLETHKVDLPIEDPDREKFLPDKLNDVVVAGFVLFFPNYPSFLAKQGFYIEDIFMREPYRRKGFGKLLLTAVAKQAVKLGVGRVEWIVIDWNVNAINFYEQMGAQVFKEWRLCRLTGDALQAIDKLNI
compound,measurement,setting,value
CC(=O)SCCNC(=O)CCNC(=O)[C@H](O)C(C)(C)COP(=O)(O)OP(=O)(O)OC[C@H]1O[C@@H](n2cnc3c(N)ncnc32)[C@H](O)[C@@H]1OP(=O)(O)O [acCoA],Kd,[1],~10 µM
same,Kd,[2],~10 µM

# Source: paper doi:10.1101/2024.03.04.583282v1 (biorxiv, 2024)
